This is an account of results in patent US10508085B2, “Compounds and methods for IDO and TDO modulation, and indications therefor” (Plexxikon Inc., priority 2016, dated 2019).

Some results are limits rather than exact numbers.

For assay [1], the target named is T1, human TDO (TDO-expressing HEK293 cells) (Homo sapiens, UniProt P48775).
T1 construct: expressed in transfected cells
In words: Cell based kynurenine assay, TDO-expressing HEK293 cell clones. The following applies: TDO-expressing HEK293 cells, 24 hours, geometric mean; read-out: HEK293 TDO Kynurenine GMean IC50 (μM) (Cellular Assay). Put shortly:
(§1)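 Steps: seed IDO1- or TDO-expressing HEK293 cells at 2.5×10^4 per well; add compound dilutions; incubate 24 h; transfer supernatant and determine kynurenine; derive IC50 via nonlinear regression of percent inhibition.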

Assay [2] deals with T2, Human Tryptophan 2,3-dioxygenase (TDO) (Homo sapiens, UniProt P48775).
T2 construct: His tag (N); made in house; host or cells: E. coli
In words: Human TDO enzymatic assay (kynurenine level). It is filed as biochemical. The following applies: 1 nM TDO, 350 μM L-Trp; geometric mean; read-out: TDO GMean: IC50 (μM) (Biochemical Assay). An outline of the steps: (§2)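 Reactions were stopped with TCA, converting N-formylkynurenine to kynurenine for quantitation, with IC50 by nonlinear regression. IDO: 6 nM enzyme, 10 μM L-Trp, 20 min RT. TDO: 1 nM enzyme, 350 μM L-Trp, 70 min RT, both in pH 6.5 buffer.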

In assay [3] the target is T3, human IDO (IDO1-expressing HEK293 cells) (Homo sapiens, UniProt P14902).
T3 construct: expressed in transfected cells
Description: Cell based kynurenine assay, IDO1-expressing HEK293 cell clones. The following applies: IDO1-expressing HEK293 cells, 24 hours, geometric mean; read-out: HEK293 IDO1 Kynurenine GMean IC50 (μM) (Cellular Assay). Put shortly:
as §1

Assay [4] addresses T4, Human Indoleamine 2,3-dioxygenase (IDO) (Homo sapiens, UniProt P14902).
T4 construct: His tag (N); made in house; host or cells: E. coli
Description: Human IDO enzymatic assay (kynurenine level). It is filed as biochemical. As to conditions: 6 nM IDO, 10 μM L-Trp; geometric mean; read-out: IDO1 GMean: IC50 (μM) (Biochemical Assay). An outline of the steps: as §2

T1 sequence (P48775 whole entry): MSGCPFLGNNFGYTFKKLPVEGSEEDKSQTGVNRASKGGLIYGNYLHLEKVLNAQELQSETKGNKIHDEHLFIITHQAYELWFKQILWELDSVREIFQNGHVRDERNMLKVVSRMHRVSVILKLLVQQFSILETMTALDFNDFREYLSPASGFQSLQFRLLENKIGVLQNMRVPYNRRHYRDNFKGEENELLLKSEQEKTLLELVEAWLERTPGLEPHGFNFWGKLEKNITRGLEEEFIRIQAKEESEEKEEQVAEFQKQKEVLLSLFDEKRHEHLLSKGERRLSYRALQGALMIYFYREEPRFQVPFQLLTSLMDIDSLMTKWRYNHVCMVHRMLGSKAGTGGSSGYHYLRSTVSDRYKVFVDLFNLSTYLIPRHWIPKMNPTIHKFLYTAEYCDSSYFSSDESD
T2 sequence (P48775 whole entry): as above
T4 sequence (P14902 whole entry): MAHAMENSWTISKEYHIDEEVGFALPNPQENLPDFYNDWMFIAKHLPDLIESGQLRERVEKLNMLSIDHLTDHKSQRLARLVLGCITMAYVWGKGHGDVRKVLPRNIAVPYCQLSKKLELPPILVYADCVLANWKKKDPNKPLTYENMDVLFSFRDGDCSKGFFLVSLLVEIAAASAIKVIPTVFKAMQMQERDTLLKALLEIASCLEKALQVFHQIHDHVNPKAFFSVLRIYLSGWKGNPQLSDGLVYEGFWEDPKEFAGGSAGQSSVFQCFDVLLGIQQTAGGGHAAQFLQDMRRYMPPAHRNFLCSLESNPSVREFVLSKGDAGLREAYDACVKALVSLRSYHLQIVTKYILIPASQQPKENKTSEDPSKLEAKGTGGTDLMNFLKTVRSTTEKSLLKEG
T3 sequence (P14902 whole entry): as above

As usually defined, the IC50 is the concentration at which inhibition is half-maximal. On to `CC(C)(C1CCN(C(=O)NCCO)CC1)[C@H](O)c1cc(Cl)cc2cn[nH]c12` [Compound P-0499, (S)-4-(1-(5-chloro-1H-indazol-7-yl)-1-hydroxy-2-methylpropan-2-yl)-N-(2-hydroxyethyl)piperidine-1-carboxamide], for which the IC50 in assay [1], in assay [2], in assay [3] and in assay [4] was 0.0001 to 10 µM in each case.
As to `CC(C)(C1CCN(C(=O)CN2CCOCC2)CC1)[C@H](O)c1cc(Cl)cc2cn[nH]c12` [Compound P-0501, (S)-1-(4-(1-(5-chloro-1H-indazol-7-yl)-1-hydroxy-2-methylpropan-2-yl)piperidin-1-yl)-2-morpholinoethan-1-one], the half-maximal inhibitory concentration (IC50) in assay [1], in assay [2], in assay [3] and in assay [4] was 0.0001 to 10 µM each time.
As for `CC(C)(C1CCN(C(=O)CC2CCS(=O)(=O)CC2)CC1)[C@H](O)c1cc(Cl)cc2cn[nH]c12` [Compound P-0502, (S)-1-(4-(1-(5-chloro-1H-indazol-7-yl)-1-hydroxy-2-methylpropan-2-yl)piperidin-1-yl)-2-(1,1-dioxidotetrahydro-2H-thiopyran-4-yl)ethan-1-one], the half-inhibitory concentration (IC50) in assay [1], in assay [2], in assay [3] and in assay [4] was 0.0001 to 10 µM each time.
Take `CC(C)(C1CCN(C(=O)Nc2ccc(C#N)cc2)CC1)[C@H](O)c1c(F)c(Cl)cc2cn[nH]c12` [Compound P-0503, (S)-4-(1-(5-chloro-6-fluoro-1H-indazol-7-yl)-1-hydroxy-2-methylpropan-2-yl)-N-(4-cyanophenyl) piperidine-1-carboxamide]: the 50% inhibitory concentration (IC50) in assay [1], in assay [2], in assay [3] and in assay [4] was 0.0001 to 10 µM throughout.
Take `CC(C)(C1CCN(C(=O)C2CC2)CC1)[C@H](O)c1c(F)c(Cl)cc2cn[nH]c12` [Compound P-0504, (S)-(4-(1-(5-chloro-6-fluoro-1H-indazol-7-yl)-1-hydroxy-2-methylpropan-2-yl)piperidin-1-yl)(cyclopropyl) methanone]: the IC50 in assay [1], in assay [2], in assay [3] and in assay [4] was 0.0001 to 10 µM each time.
As to `CC(C)(C1CCN(C(=O)CC#N)CC1)[C@H](O)c1c(F)c(Cl)cc2cn[nH]c12` [Compound P-0505, (S)-3-(4-(1-(5-chloro-6-fluoro-1H-indazol-7-yl)-1-hydroxy-2-methylpropan-2-yl)piperidin-1-yl)-3-oxopropanenitrile], the IC50 in assay [1], in assay [2], in assay [3] and in assay [4] was 0.0001 to 10 µM throughout.
In the case of `COCC(=O)N1CCC(C(C)(C)[C@H](O)c2c(F)c(Cl)cc3cn[nH]c23)CC1` [Compound P-0506, (S)-1-(4-(1-(5-chloro-6-fluoro-1H-indazol-7-yl)-1-hydroxy-2-methylpropan-2-yl)piperidin-1-yl)-2-methoxyethan-1-one], the IC50 in assay [1], in assay [2], in assay [3] and in assay [4] was 0.0001 to 10 µM throughout.
Take `CC(C)(C1CCN(C(=O)C2CCOCC2)CC1)[C@H](O)c1c(F)c(Cl)cc2cn[nH]c12` [Compound P-0507, (S)-(4-(1-(5-chloro-6-fluoro-1H-indazol-7-yl)-1-hydroxy-2-methylpropan-2-yl)piperidin-1-yl)(tetrahydro-2H-pyran-4-yl)methanone]: the IC50 in assay [1], in assay [2], in assay [3] and in assay [4] was 0.0001 to 10 µM throughout.
In the case of `CNC(=O)N1CCC(C(C)(C)[C@H](O)c2c(F)c(Cl)cc3cn[nH]c23)CC1` [Compound P-0508, (S)-4-(1-(5-chloro-6-fluoro-1H-indazol-7-yl)-1-hydroxy-2-methylpropan-2-yl)-N-methylpiperidine-1-carboxamide], the IC50 in assay [1], in assay [2], in assay [3] and in assay [4] was 0.0001 to 10 µM in each case.
Take `CC(C)(C1CCN(C(=O)NC2CC2)CC1)[C@H](O)c1c(F)c(Cl)cc2cn[nH]c12` [Compound P-0509, (S)-4-(1-(5-chloro-6-fluoro-1H-indazol-7-yl)-1-hydroxy-2-methylpropan-2-yl)-N-cyclopropylpiperidine-1-carboxamide]: the IC50 in assay [1], in assay [2], in assay [3] and in assay [4] was 0.0001 to 10 µM throughout.
In the case of `COCCNC(=O)N1CCC(C(C)(C)[C@H](O)c2c(F)c(Cl)cc3cn[nH]c23)CC1` [Compound P-0510, (S)-4-(1-(5-chloro-6-fluoro-1H-indazol-7-yl)-1-hydroxy-2-methylpropan-2-yl)-N-(2-methoxyethyl) piperidine-1-carboxamide], the IC50 in assay [1], in assay [2], in assay [3] and in assay [4] was 0.0001 to 10 µM throughout.
On to `CC(C)(C1CCN(C(=O)NCC(F)(F)F)CC1)[C@H](O)c1c(F)c(Cl)cc2cn[nH]c12` [Compound P-0511, (S)-4-(1-(5-chloro-6-fluoro-1H-indazol-7-yl)-1-hydroxy-2-methylpropan-2-yl)-N-(2,2,2-trifluoroethyl) piperidine-1-carboxamide], for which the IC50 in assay [1], in assay [2], in assay [3] and in assay [4] was 0.0001 to 10 µM each time.
Turning to `CC(C)(C1CCN(C(=O)Nc2ccc(F)cc2)CC1)[C@H](O)c1c(F)c(Cl)cc2cn[nH]c12` [Compound P-0512, (S)-4-(1-(5-chloro-6-fluoro-1H-indazol-7-yl)-1-hydroxy-2-methylpropan-2-yl)-N-(4-fluorophenyl) piperidine-1-carboxamide], the IC50 in assay [1], in assay [2], in assay [3] and in assay [4] was 0.0001 to 10 µM in each case.
For `CCOC(=O)NC(=O)N1CCC(C(C)(C)[C@H](O)c2c(F)c(Cl)cc3cn[nH]c23)CC1` [Compound P-0513, ethyl (S)-(4-(1-(5-chloro-6-fluoro-1H-indazol-7-yl)-1-hydroxy-2-methylpropan-2-yl)piperidine-1-carbonyl)carbamate], the IC50 in assay [1], in assay [2], in assay [3] and in assay [4] was 0.0001 to 10 µM in each case.
Consider `CC(C)(C1CCN(C(=O)NC(=O)c2ccccc2)CC1)[C@H](O)c1c(F)c(Cl)cc2cn[nH]c12` [Compound P-0514, (S)-N-benzoyl-4-(1-(5-chloro-6-fluoro-1H-indazol-7-yl)-1-hydroxy-2-methylpropan-2-yl)piperidine-1-carboxamide], for which the IC50 in assay [1], in assay [2], in assay [3] and in assay [4] was 0.0001 to 10 µM in each case.
On to `CC(C)(C1CCN(S(C)(=O)=O)CC1)[C@H](O)c1c(F)c(Cl)cc2cn[nH]c12` [Compound P-0515, (S)-1-(5-chloro-6-fluoro-1H-indazol-7-yl)-2-methyl-2-(1-(methylsulfonyl)piperidin-4-yl) propan-1-ol], for which the IC50 in assay [1], in assay [2], in assay [3] and in assay [4] was 0.0001 to 10 µM throughout.
With `CC(C)(C)OC(=O)N1CCC(C(F)(F)[C@H](O)c2cc(Cl)cc3cn[nH]c23)CC1` [Compound P-0516, tert-butyl (R)-4-(2-(5-chloro-1H-indazol-7-yl)-1,1-difluoro-2-hydroxyethyl) piperidine-1-carboxylate], the half-maximal inhibitory concentration (IC50) in assay [1], in assay [2], in assay [3] and in assay [4] was 0.0001 to 10 µM throughout.
Take `CC(C)(C)OC(=O)N1CCC(C(F)(F)[C@@H](O)c2cc(Cl)cc3cn[nH]c23)CC1` [Compound P-0517, tert-butyl (S)-4-(2-(5-chloro-1H-indazol-7-yl)-1,1-difluoro-2-hydroxyethyl) piperidine-1-carboxylate]: the IC50 was greater than 10 µM in assay [1], greater than 200 µM in assay [2], greater than 10 µM in assay [3] and 0.0001 to 10 µM in assay [4].
In the case of `CC(C)(C1CCN(C(=O)Cc2ccc(Cl)c(F)c2)CC1)[C@H](O)c1cc(Cl)cc2cn[nH]c12` [Compound P-0518, (S)-1-(4-(1-(5-chloro-1H-indazol-7-yl)-1-hydroxy-2-methylpropan-2-yl)piperidin-1-yl)-2-(4-chloro-3-fluorophenyl) ethan-1-one], the IC50 in assay [1], in assay [2], in assay [3] and in assay [4] was 0.0001 to 10 µM throughout.
For the compound `CC(C)(C1CCN(C(=O)Cc2ccc(F)c(Cl)c2)CC1)[C@H](O)c1cc(Cl)cc2cn[nH]c12` [Compound P-0519, (S)-1-(4-(1-(5-chloro-1H-indazol-7-yl)-1-hydroxy-2-methylpropan-2-yl)piperidin-1-yl)-2-(3-chloro-4-fluorophenyl)ethan-1-one], the IC50 in assay [1], in assay [2], in assay [3] and in assay [4] was 0.0001 to 10 µM in each case.
